Molecular target: T1, Carbonic anhydrase 4 (Bos taurus, UniProt Q95323)
T1 sequence (Q95323 whole entry): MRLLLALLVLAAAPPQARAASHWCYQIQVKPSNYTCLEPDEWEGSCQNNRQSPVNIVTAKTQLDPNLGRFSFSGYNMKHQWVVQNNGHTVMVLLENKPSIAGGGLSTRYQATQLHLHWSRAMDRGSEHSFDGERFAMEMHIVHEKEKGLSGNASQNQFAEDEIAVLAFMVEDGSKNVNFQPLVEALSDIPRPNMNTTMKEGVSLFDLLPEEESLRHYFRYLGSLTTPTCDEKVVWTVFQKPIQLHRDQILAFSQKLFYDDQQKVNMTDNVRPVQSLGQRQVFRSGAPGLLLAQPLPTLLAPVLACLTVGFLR

**Q.** Which Ki does the source give for NC(=O)Nc1ccc(S(=O)(=O)Nc2ccc(S(N)(=O)=O)cc2)cc1 here?
**A.** The Ki was 0.02 µM.

**Q.** How did the Ki turn out when NS(=O)(=O)c1ccc(CC/N=C/c2ccncc2)cc1 was run?
**A.** The Ki was 0.012 µM.

**Q.** How did the Ki turn out when NS(=O)(=O)c1nnc(NC(=O)Nc2ccc(Cl)c(Cl)c2)s1 was run?
**A.** The Ki was 0.008 µM.

**Q.** NS(=O)(=O)c1ccc(CC/N=C/c2cccc([N+](=O)[O-])c2)cc1 was tested. Which Ki did it give?
**A.** The Ki was 0.14 µM.

**Q.** How did the Ki turn out when Cn1cccc1/C=N/CCc1ccc(S(N)(=O)=O)cc1 was run?
**A.** The Ki was 0.008 µM.

**Q.** For NS(=O)(=O)c1ccc(CC/N=C/c2ccc[nH]2)cc1, which Ki is on record?
**A.** The Ki was 0.01 µM.

**Q.** With NS(=O)(=O)c1ccc(CCNC(=S)Nc2ccccc2)cc1 as the molecule, how does the Ki read?
**A.** The Ki was 0.07 µM.

**Q.** With NS(=O)(=O)c1ccc(CCNC(=S)NC(=O)Nc2ccc(Cl)c(Cl)c2)cc1 as the molecule, how does the Ki read?
**A.** The Ki was 0.024 µM.

**Q.** With NC(=O)Nc1ccc(S(=O)(=O)Nc2cccc(S(N)(=O)=O)c2)cc1 as the molecule, how does the Ki read?
**A.** Its Ki is 0.025 µM.

**Q.** How did the Ki turn out when Cc1ccc(S(=O)(=O)NC(=O)Nc2c(S(N)(=O)=O)cc(S(N)(=O)=O)c(Cl)c2Cl)cc1 was run?
**A.** Its Ki is 0.014 µM.

**Q.** How did the Ki turn out when NS(=O)(=O)c1ccc(CC/N=C/c2ccccc2OC(=O)NS(=O)(=O)c2ccc(Cl)cc2)cc1 was run?
**A.** Its Ki is 0.16 µM.

**Q.** How did the Ki turn out when Cn1cccc1/C=N/Cc1ccc(S(N)(=O)=O)cc1 was run?
**A.** Its Ki is 0.01 µM.

**Q.** How did the Ki turn out when Cc1ccc(S(=O)(=O)NC(=O)Oc2ccccc2/C=N/CCc2ccc(S(N)(=O)=O)cc2)cc1 was run?
**A.** The Ki was 0.12 µM.

**Q.** With NS(=O)(=O)c1ccc(CC/N=C/c2ccccc2OC(=O)NS(=O)(=O)c2ccccc2)cc1 as the molecule, how does the Ki read?
**A.** The Ki was 0.011 µM.

Source: ChEMBL document CHEMBL1140631, “Carbonic anhydrases as targets for medicinal chemistry” (Bioorg Med Chem, 2007)
